The values below come from patent publication US20080286393A1, “Method for the enrichment of the polyphenolic contents from unripe fruit rinds of Terminalia belerica and uses thereof” (priority 2007, published 2008).

Experiment [1] in a line: Anti-oxidant activity: DPPH scavenging. The settings on record: FIG. 5. On the procedure:
(§1) The antioxidant activity of the light-colored, enriched/concentrated (85%-100%) polyphenolic extract from the dried, unripe fruit rinds of Terminalia belerica was assayed by diphenylpicrylhydrazyl (DPPH), Oxygen Radical Absorption (or Absorbance) Capacity (ORAC) and the hydroxyl radical Absorption (or Absorbance) capacity (HORAC) studies, as per the validated procedures documented in Cosmetics and toiletries. Cosmeceuticals: Jang D I, Lee B J, Jeon C O, Jo N S, Park J H, Cho S Y, Lee H, Koh J S. 1998, J. Agric. Food Chem. (2001), 49, 4619-4626 and J. Agric. Food. Chem. (2002), 50, 2772-2777.)
(In general: DPPH is a stable violet radical that fades when it is reduced.)

A short description of experiment [2]: Oxygen Radical Absorption (or Absorbance) Capacity (ORAC). The settings on record: FIG. 6. On the procedure: as §1, with “[…] The ORAC value of the light-colored, enriched/concentrated (85%-100%) polyphenolic extract from the dried, unripe fruit rinds of Terminalia belerica was 6237±640 μMol trolox equivalents/gram while the ORAC value of Vitamin C was 3400 μMol trolox equivalents/gram and that of grape seed extract was 4528 μMol trolox equivalents/gram.” for “Chem. (2002), 50, 2772-2777.)”

`Cc1cc(C(C)(C)C)c(O)c(C(C)(C)C)c1` [BHT, Butylated hydroxyl toluene] returned an SC50 scavenging activity in experiment [1] of 4.6 µg/mL. In experiment [1], `O=C1O[C@H]([C@@H](O)CO)C(O)=C1O` [Vitamin C] came in with an SC50 scavenging activity of 1.9 µg/mL. Also, the ORAC value in experiment [2] is recorded as 3400 μMol trolox equivalents/gram.
